Source: ChEMBL document CHEMBL3887009, “Substituted benzoxazoles” (2016)

Assay: Inhibition Assay: To determine the thrombin inhibition of the substances listed above, a biochemical test system is constructed in which the conversion of a thrombin substrate is used for determining the enzymatic activity of human thrombin. Here, thrombin cleaves aminomethylcoumarin, which is measured fluorescently, from the peptic substrate. The determinations are carried out in microtitre plates.Substances to be tested are dissolved in various concentrations in dimethyl sulphoxide and incubated for 15 min with human thrombin (0.06 nmol/l dissolved in 50 mmol/l of Tris buffer [C,C,C-tris(hydroxymethyl)aminomethane], 100 mmol/l of sodium chloride, 0.1% BSA [bovine serum albumin], pH 7.4) at 22° C. The substrate (5 umol/l Boc-Asp(OBzl)-Pro-Arg-AMC from Bachem) is then added. After 30 min of incubation, the sample is excited at a wavelength of 360 nm and the emission is measured at 460 nm. The measured emissions of the test batches with test substance are compared to the control batches without test substance (only dimethyl sulphoxide instead of test substance in dimethyl sulphoxide) and the IC50 values are calculated from the concentration/activity relationships.

Question: Which IC50 does the source give for `COc1cc(C(=O)N2CC(C)(CCO)OC[C@H]2C)cc2nc(N[C@H](CF)c3cccc(Cl)c3)oc12` (stereo partly specified) here?
Answer: 130 nM
